Data reported in ChEMBL document CHEMBL1201862, “PubChem BioAssay data set” (2004).
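Interpolation was linear, between the two tested concentrations surrounding the appropriate level; five concentrations were tested over 48 hours in 96-well plates. The concentration for 50% growth inhibition is given as GI50.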 Calls of active or inactive are those of the source. Cut-off read from the data, not from the text of the source: active = GI50 up to about 1.1 µM and inactive = higher.

What was measured:
Assay in all cases: inhibition of tumour cell growth, NCI panel, 48 h
[1] = test system: OVCAR-8
[2] = test system: RPMI-8226
[3] = test system: MDA-MB-231
[4] = test system: U-251
[5] = test system: SK-MEL-28
[6] = test system: K562
[7] = test system: NCI/ADR-RES
[8] = test system: LOX IMVI
[9] = test system: 786-0
[10] = test system: NCI-H226
[11] = test system: HCT-15
[12] = test system: RXF 393
[13] = test system: SF-295
[14] = test system: OVCAR-4
[15] = test system: UACC-257
[16] = test system: T47D
[17] = test system: OVCAR-5
[18] = test system: Malme-3M
[19] = test system: MOLT-4
[20] = test system: OVCAR-3

| SMILES | GI50 [1] | GI50 [2] | GI50 [3] | GI50 [4] | GI50 [5] | GI50 [6] | GI50 [7] | GI50 [8] | GI50 [9] | GI50 [10] | GI50 [11] | GI50 [12] | GI50 [13] | GI50 [14] | GI50 [15] | GI50 [16] | GI50 [17] | GI50 [18] | GI50 [19] | GI50 [20] |
| --- | --- | --- | --- | --- | --- | --- | --- | --- | --- | --- | --- | --- | --- | --- | --- | --- | --- | --- | --- | --- |
| Cc1nc2ccccc2nc1N1CCCC1 | > 100 µM (inactive) | > 100 µM (inactive) | > 100 µM (inactive) | > 100 µM (inactive) | > 100 µM (inactive) | > 100 µM (inactive) | > 100 µM (inactive) | > 100 µM (inactive) | > 100 µM (inactive) | > 100 µM (inactive) | > 100 µM | > 100 µM (inactive) | > 100 µM (inactive) | > 100 µM (inactive) | > 100 µM (inactive) | > 100 µM (inactive) | > 100 µM (inactive) | > 100 µM (inactive) |  |  |
| O=c1c2cccnc2[s+]([O-])n1Cc1ccccc1 (stereo not given) | > 100 µM (inactive) | > 100 µM (inactive) | > 100 µM (inactive) | > 100 µM (inactive) | > 100 µM (inactive) | > 100 µM (inactive) | > 100 µM (inactive) |  | > 100 µM (inactive) | > 100 µM (inactive) | > 100 µM | > 100 µM (inactive) | > 100 µM (inactive) | > 100 µM (inactive) | > 100 µM (inactive) | > 100 µM (inactive) | > 100 µM (inactive) | > 100 µM (inactive) | > 100 µM (inactive) |  |
| COc1cc2c(C)cc(O)cc2c2cc(O)c(C)cc12 | 14.4 µM (inactive) | 1.91 µM (inactive) | 9.66 µM (inactive) | 11.2 µM (inactive) |  | 2.48 µM (inactive) | 13.5 µM (inactive) | 2.23 µM (inactive) | 8.43 µM (inactive) | 13.5 µM (inactive) | 8.55 µM | 12.4 µM (inactive) | 12.9 µM (inactive) | 11.3 µM (inactive) | 12.5 µM (inactive) | 10.1 µM (inactive) | 13.7 µM (inactive) |  | 5.83 µM (inactive) | 12 µM (inactive) |
| CN1CC2=C(N=C(S)NC2c2ccccc2Cl)/C(=C/c2ccccc2Cl)C1 (stereo not given) | 33 µM (inactive) |  | 26.2 µM (inactive) | 80.5 µM (inactive) | > 100 µM (inactive) | 29 µM (inactive) | 30.5 µM (inactive) | 51.1 µM (inactive) | > 100 µM (inactive) | 52.7 µM (inactive) | 64.1 µM | > 100 µM (inactive) | 53.5 µM (inactive) | 14.3 µM (inactive) | 55.8 µM (inactive) | 58.3 µM (inactive) | > 100 µM (inactive) | 25.9 µM (inactive) | 23 µM (inactive) | 21.5 µM (inactive) |
| COc1ccccc1N1CCN(S(=O)(=O)c2ccc(Cl)cc2)C1=N | 63.2 µM (inactive) | 93.8 µM (inactive) | 37.1 µM (inactive) | 37.5 µM (inactive) | 75 µM (inactive) | 61.7 µM (inactive) | 61.2 µM (inactive) |  | 99.5 µM (inactive) |  | 62.4 µM | > 100 µM (inactive) | > 100 µM (inactive) | 87.9 µM (inactive) | 41.6 µM (inactive) | 68.7 µM (inactive) | 22.4 µM (inactive) |  | 43 µM (inactive) | 97.9 µM (inactive) |
| Nn1c(CCCCCCCCc2nnc(-c3c(O)ccc4ccccc34)n2N)nnc1-c1c(O)ccc2ccccc12 | > 100 µM (inactive) | > 100 µM (inactive) | > 100 µM (inactive) | > 100 µM (inactive) | > 100 µM (inactive) |  | > 100 µM (inactive) | > 100 µM (inactive) | > 100 µM (inactive) | > 100 µM (inactive) | > 100 µM |  | > 100 µM (inactive) | > 100 µM (inactive) | > 100 µM (inactive) | > 100 µM (inactive) | > 100 µM (inactive) | > 100 µM (inactive) | > 100 µM (inactive) | > 100 µM (inactive) |
| N=C(N)NC(=N)Nc1c(F)c(F)c(F)c(F)c1F | > 100 µM (inactive) | 52.7 µM (inactive) | 62.2 µM (inactive) | > 100 µM (inactive) | > 100 µM (inactive) | 41.5 µM (inactive) | > 100 µM (inactive) |  | > 100 µM (inactive) | > 100 µM (inactive) | > 100 µM | > 100 µM (inactive) | > 100 µM (inactive) | > 100 µM (inactive) | 23.6 µM (inactive) | 61.8 µM (inactive) | > 100 µM (inactive) | 69 µM (inactive) |  | > 100 µM (inactive) |
| CC(C)(Cl)C(Br)CC/C(=C/CCl)CBr.CC(C)(Cl)C(Br)CC/C(=C\CCl)CBr (stereo not given) | 2.06 µM (inactive) | 1.17 µM (inactive) | 1.74 µM (inactive) | 2.21 µM (inactive) | 2.06 µM (inactive) | 1.72 µM (inactive) | 3.23 µM (inactive) |  | 1.86 µM (inactive) | 18.7 µM (inactive) | 1.43 µM | 2.62 µM (inactive) | 3.51 µM (inactive) | 2.34 µM (inactive) | 2.5 µM (inactive) | 1.08 µM (active) | 8.89 µM (inactive) | 1.71 µM (inactive) | 1.34 µM (inactive) | 1.87 µM (inactive) |
| CCCC[Si](CCCC)(CCCC)O[C@@H](/C=C/C(=O)OCC)[C@H](Cc1ccccc1)O[Si](CCCC)(CCCC)CCCC | > 100 µM (inactive) | > 100 µM (inactive) | > 100 µM (inactive) | > 100 µM (inactive) |  | > 100 µM (inactive) | > 100 µM (inactive) | > 100 µM (inactive) | > 100 µM (inactive) | > 100 µM (inactive) | > 100 µM | > 100 µM (inactive) | > 100 µM (inactive) | > 100 µM (inactive) | > 100 µM (inactive) | > 100 µM (inactive) | > 100 µM (inactive) | > 100 µM (inactive) | > 100 µM (inactive) |  |
| Cn1/c(=N\c2ccc(Cl)cc2)sc2ccccc21 | 38.5 µM (inactive) | 92.3 µM (inactive) | 35.5 µM (inactive) | 52.5 µM (inactive) | > 100 µM (inactive) | 57.9 µM (inactive) | 34.7 µM (inactive) | 34.7 µM (inactive) | 37.7 µM (inactive) | 46 µM (inactive) | 8.15 µM | 50.8 µM (inactive) | 33.4 µM (inactive) | > 100 µM (inactive) | 35.7 µM (inactive) | 15 µM (inactive) | 34.8 µM (inactive) | 57.7 µM (inactive) | 48.2 µM (inactive) |  |
| CC[C@@]1(O)C(=O)OCc2c1cc1n(c2=O)Cc2c-1nc1ccccc1c2/C=N\NC(=O)C(C)N (stereo not given in full) | 0.0923 µM (active) |  | 27 µM (inactive) | < 0.0195 µM (active) | 17.8 µM (inactive) |  | 0.241 µM (active) | 0.0254 µM (active) | 0.069 µM (active) | 0.33 µM (active) | 4.29 µM | 1.04 µM (active) | < 0.0371 µM (active) | 7.1 µM (inactive) | 1.37 µM (inactive) | < 0.0157 µM (active) | 6.71 µM (inactive) | 1.64 µM (inactive) | < 0.0158 µM (active) | 7.06 µM (inactive) |
| CCCC1(N2C(=O)c3ccc4c5c(ccc(c35)C2=O)N(C2(CCC)CCCCC2)C4=O)CCCCC1 | > 100 µM (inactive) | > 100 µM (inactive) | > 100 µM (inactive) | > 100 µM (inactive) | > 100 µM (inactive) | > 100 µM (inactive) | > 100 µM (inactive) |  | > 100 µM (inactive) |  | > 100 µM | > 100 µM (inactive) | > 100 µM (inactive) | > 100 µM (inactive) |  | > 100 µM (inactive) | > 100 µM (inactive) | > 100 µM (inactive) | > 100 µM (inactive) | > 100 µM (inactive) |
| CC1(C)OC2C(CO)OC(n3ccc(=O)[nH]c3=O)C2O1 (stereo not given) | > 100 µM (inactive) | > 100 µM (inactive) | > 100 µM (inactive) | > 100 µM (inactive) | > 100 µM (inactive) | > 100 µM (inactive) | > 100 µM (inactive) | > 100 µM (inactive) | > 100 µM (inactive) | > 100 µM (inactive) | > 100 µM | > 100 µM (inactive) | > 100 µM (inactive) |  | > 100 µM (inactive) | > 100 µM (inactive) | > 100 µM (inactive) |  | > 100 µM (inactive) | > 100 µM (inactive) |
| O=[N+]([O-])c1ccc(/C=C\c2ccc3c(c2)OCO3)c([N+](=O)[O-])c1 | 19 µM (inactive) | 4.39 µM (inactive) | 17.2 µM (inactive) | 14.2 µM (inactive) | 17.1 µM (inactive) | 21.3 µM (inactive) | 29.2 µM (inactive) | 13.4 µM (inactive) | 16.9 µM (inactive) |  | 14.6 µM | 0.0316 µM (active) | 23 µM (inactive) |  | 17.3 µM (inactive) | 44.1 µM (inactive) | 18.7 µM (inactive) | 19.7 µM (inactive) | 17.5 µM (inactive) | 18.2 µM (inactive) |
| COc1ccc2[nH]c3c(c2c1)CC(=O)N1CCC[C@H](C1)CC31OCCCO1 | > 100 µM (inactive) | > 100 µM (inactive) | > 100 µM (inactive) | > 100 µM (inactive) | > 100 µM (inactive) |  | > 100 µM (inactive) |  | > 100 µM (inactive) | > 100 µM (inactive) | > 100 µM | 44.5 µM (inactive) | > 100 µM (inactive) | > 100 µM (inactive) | > 100 µM (inactive) | > 100 µM (inactive) | > 100 µM (inactive) | > 100 µM (inactive) |  | > 100 µM (inactive) |
